From patent publication US8093210B2, “Treatment of sepsis with 5-ethyl-1-phenyl-2(1H)-pyridone” (Solanan, Inc., priority 2008, dated 2012)
Values joined by “and” are separate entries in the source; they are usually repeats but may differ in a detail not shown here. Equal values may be shown once.

Legend:
[1] = pH of 20 mg/mL solutions (Example 9); assay type: physicochemical
Procedure: The pH of two freshly prepared solutions of the compound each at 20 mg/mL concentration was measured with a calibrated Mettler MP-220 pH meter equipped with a pH electrode (model 413). The pH of the solution made in water averaged 7.4 as compared to solutions made in isotonic saline in which the pH averaged 6.21 using triplicate samples in each case, as shown in the table below.

[2] = test system: TNF-α in THP-1 cells; test: Secreted and cell-associated TNF-α in PMA-transformed THP-1 cells exposed to LPS (ELISA, Example 6); assay type: cell-based, human; conditions: 3 hr, mean ± SEM, four replicates; for Secreted TNF-α: THP-1, 1 ng/mL LPS; for Cell-associated TNF-α: THP-1 lysate, 1 ng/mL LPS
Procedure: The effects of 5-EPP on secreted and cell associated TNF-α was examined in vitro using phorbol myristate acetate-transformed (PMA; Sigma, St. Louis, Mo.) human monocytic cells, THP-1 (ATCC, Manassas, Va.) according to the technique described by Grattendick et al. (International Immunopharmacology 2008, 8; 679-87). Briefly, cells were incubated for 3 hr on 96-well plates with culture media, 1 ng/mL LPS, or 1 ng/mL LPS 0-200 μg/mL 5-EPP before culture media were collected and analyzed for the presence of secreted TNF-α via a commercially available enzyme-linked immunosorbent assay (ELISA) kit (BD Biosciences, San Diego, Calif.). Separately, identically treated cells were lysed and their cell-associated TNF-α levels were determined via ELISA. All treatment groups were simultaneously compared using one-way ANOVA and Tukey's multiple comparison tests.
The values are expressed in pg/mL as mean±standard error of the mean for four replicates at all concentrations in each case.

[3] = test system: cecal ligation and puncture (CLP) model of sepsis; test: Serum biomarkers and recoverable serum volume in cecal ligation and puncture (CLP) model of sepsis (Example 4); assay type: in vivo, Male Swiss-Webster mice; conditions: for level of blood urea nitrogen (BUN) / recoverable blood-serum volume (average volume of serum) / serum level of alanine transaminase (ALT) / serum level of creatine kinase / serum level of glucose: 200 mg/kg ip 2 h before CLP, mean ± SEM
Procedure: Cecal ligation and puncture (CLP) is a more advanced model of septic shock than those involving lipopolysaccharide (LPS). In this model, as described by Wichterman K A, Baue A E, Chaudry I H (J Surg Res. 1980, 29; 189-201), mice are given intraperitoneal (IP) injections of the test compound or saline (control) prior to the beginning of the surgery. The mice are then anesthetized and a laparotomy is performed. The cecum is isolated and separated from the rest of the intestines by tying it at its base with a suturing thread. The cecum is then punctured with a needle. This facilitates influx of the colonic microflora into the abdominal cavity, which results in polymicrobial-induced peritonitis. Unlike the endotoxin model of septic shock, which is initiated by purified bacterial cell wall products, lipopolysaccharide (LPS), that simulates an acute septic shock, the CLP model more closely mimics clinically encountered signs of septic shock seen in humans as it is triggered by living bacteria.
Male Swiss-Webster mice, seven weeks old, were injected with 5-EPP (200 mg/kg) or saline (control) by intraperitoneal route two hours prior to the beginning of the surgery. They were anesthetized by a mixture of xylazine and ketamine, and a laparotomy was performed. The cecum was separated from the rest of the intestine, ligated with suture, and then punctured with an 18 gauge needle. Blood was collected by cardiac puncture 3, 6, or 12 hours after CLP and the serum isolated by centrifugation. Analysis of serum transaminases, blood urea nitrogen, creatine kinase, and glucose was carried out by a commercial company (Idexx Laboratories, West Sacramento, Calif.).
The results are reported as the mean±standard error of the mean with the number of animals in parentheses for each group. The statistical analysis for differences between saline control and 5-EPP pretreated mice was performed using […] (Prism™ for Windows 4.02, Graphpad Software, Inc., San Diego, Calif.). A value of P<0.05 was considered to be the minimum level of statistical significance. Reference values were determined by analyzing serum from mice injected with saline but not subjected to the CLP procedure.

[4] = test system: LPS-induced septic shock; test: Lethal shock caused by LPS alone, survival of mice (Example 3); assay type: in vivo; conditions: LPS alone (30 mg/kg), 100 mg/kg i.p., monitored for 4 days
Procedure: The survival of mice subjected to treatment of the agent and LPS alone pursuant to the methodology of Galanos C, Freudenberg M A, Reutter W. Proc Natl Acad Sci USA. 1979 November; 76 (11)5939-43) was observed. This procedure is believed to evoke a pathophysiological response which is more like that observed during septic shock than that caused by the LPS and galactosamine.
All agents were injected simultaneously via the intraperitoneal route and the response compared to a placebo agent (saline).
The animals were monitored for 4 days after treatment and the resulting data analyzed by the same Fisher exact test and criteria as before.

[5] = LD50 estimate after a single intraperitoneal dose (Example 8); assay type: in vivo; conditions: male, Swiss-Webster, mouse, in vivo, ip; mice; single intraperitoneal dose; sigmoidal curve fit, R^2=0.949
Procedure: (§1) Male Swiss-Webster mice were obtained from standard commercial sources at 7 weeks of age, housed in the laboratory for at least 1 week prior to use and were provided standard mouse chow and water ad libitum. Animals were subjected to a 12 hour/12 hour light-dark cycle.
(§2) Six groups of mice were injected via the intraperitoneal route with 5-EPP (250-500 mg/kg) dissolved in sterile isotonic saline, immediately replaced in their cages and then observed carefully for the next 6-8 hours. A LD50 value was estimated from the mortality data by a non-linear curve fitting program (Prism™ for Windows 4.02).

[6] = test system: Male Swiss-Webster mice; test: as above; assay type: in vivo
Procedure: as §1, §2

SMILES: CCc1ccc(=O)n(-c2ccccc2)c1 [5-EPP, 5-ethyl-1-phenyl-2-(1H)-pyridone]
- pH of the solution, average ([1]; 20 mg/mL in isotonic saline): 6.21
- pH of the solution, average ([1]; 20 mg/mL in water): 7.4
- pH ([1]; DI Water, final 5-EPP 20.0 mg/mL): 7.29 and 7.24
- pH ([1]; Isotonic saline, final 5-EPP 20.0 mg/mL): 6.13
- pH ([1]; Isotonic saline, final 5-EPP 20.1 mg/mL): 6.20
- Secreted TNF-α ([2]; 10 μg/mL 5-EPP): 5382.8 ± 91.8 pg/mL
- Secreted TNF-α ([2]; 33 μg/mL 5-EPP): 3261.5 ± 94.1 pg/mL
- Secreted TNF-α ([2]; 100 μg/mL 5-EPP): 2073.7 ± 60.7 pg/mL
- Secreted TNF-α ([2]; 200 μg/mL 5-EPP): 1469.7 ± 58.9 pg/mL
- Cell-associated TNF-α ([2]; 10 μg/mL 5-EPP): 35.4 ± 3.1 pg/mL
- Cell-associated TNF-α ([2]; 33 μg/mL 5-EPP): 25.9 ± 1.6 pg/mL
- Cell-associated TNF-α ([2]; 100 μg/mL 5-EPP): 19.0 ± 0.9 pg/mL
- Cell-associated TNF-α ([2]; 200 μg/mL 5-EPP): 10.1 ± 1.3 pg/mL
- level of blood urea nitrogen (BUN) ([3]; 3 Hours Post-CLP): 20.8 ± 0.1 (11) mg/dL
- recoverable blood-serum volume (average volume of serum) ([3]; 3 Hours Post-CLP): 238.8 ± 20.11 (13) microliter
- serum level of alanine transaminase (ALT) ([3]; 3 Hours Post-CLP): 159.1 ± 21.2 (11) U/L
- serum level of creatine kinase ([3]; 3 Hours Post-CLP): 2790.4 ± 370.8 (11) U/L
- serum level of glucose ([3]; 3 Hours Post-CLP): 303.9 ± 30.8 (11) mg/dL
- level of blood urea nitrogen (BUN) ([3]; 6 Hours Post-CLP): 19.4 ± 1.0 (12) mg/dL
- recoverable blood-serum volume (average volume of serum) ([3]; 6 Hours Post-CLP): 219.6 ± 16.70 (12) microliter
- serum level of alanine transaminase (ALT) ([3]; 6 Hours Post-CLP): 128.9 ± 28.7 (12) U/L
- serum level of creatine kinase ([3]; 6 Hours Post-CLP): 1950.3 ± 244.1 (12) U/L
- serum level of glucose ([3]; 6 Hours Post-CLP): 116.7 ± 7.7 (12) mg/dL
- level of blood urea nitrogen (BUN) ([3]; 12 Hours Post-CLP): 23 ± 2.3 (12) mg/dL
- recoverable blood-serum volume (average volume of serum) ([3]; 12 Hours Post-CLP): 282.7 ± 27.70 (13) microliter
- serum level of alanine transaminase (ALT) ([3]; 12 Hours Post-CLP): 148.2 ± 12.5 (12) U/L
- serum level of creatine kinase ([3]; 12 Hours Post-CLP): 778.5 ± 91.6 (12) U/L
- serum level of glucose ([3]; 12 Hours Post-CLP): 102.9 ± 5.9 (12) mg/dL
- serum to blood ratio versus saline-control CLP mice ([3]; 200 mg/kg ip, at any time, data not shown): no significant difference
- mortality [4]: 30% mortality
- LD50 [5]: 380 mg/kg
- time to ataxia, loss of the righting reflex and labored breathing ([6]; highest doses (450-500 mg/kg) ip): ≤ 5 min
- absorption and distribution, suggested by rapid onset of symptoms ([6]; intraperitoneal route): rapidly absorbed and distributed across the blood-brain barrier
- time over which symptoms gradually lessened until animals appeared unaffected ([6]; lower doses ip): 1 to 2 h
- LD100 ([6]; single intraperitoneal dose, raw mortality data): 450 to 500 mg/kg
